Test results published in publication PMC3094066 (Molecular Systems Biology, 2011).

Target: human ADRB2 (Homo sapiens, UniProt P07550)
Test: Calcium mobilization assay
Assay type: cell-based
Details: in words; for ADRB2 antagonist activity: Figure 4B

human ADRB2, sequence (P07550 whole entry): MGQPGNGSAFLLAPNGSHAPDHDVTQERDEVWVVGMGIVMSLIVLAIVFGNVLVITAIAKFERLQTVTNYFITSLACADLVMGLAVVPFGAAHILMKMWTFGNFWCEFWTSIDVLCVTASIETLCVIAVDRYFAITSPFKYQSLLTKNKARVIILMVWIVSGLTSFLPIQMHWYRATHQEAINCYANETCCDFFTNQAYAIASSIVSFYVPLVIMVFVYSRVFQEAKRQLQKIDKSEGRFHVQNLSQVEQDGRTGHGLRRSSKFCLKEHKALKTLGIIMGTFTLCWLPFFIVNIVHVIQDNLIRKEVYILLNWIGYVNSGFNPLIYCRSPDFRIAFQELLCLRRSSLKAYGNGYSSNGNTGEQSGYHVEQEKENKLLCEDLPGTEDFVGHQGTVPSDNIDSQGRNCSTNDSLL

SMILES	ADRB2 agonist activity (Figure 4A)	ADRB2 antagonist activity
Cc1ccc(-n2c(C)ccc2C)c2c1CC(C)(C)O2 [Compound 5, 2,5-Dimethyl-1-(2,2,4-trimethyl-2,3-dihydro-1-benzofuran-7-yl)-1H-pyrrole]	weak ADRB2 agonist activity	
Cc1cc2c(OCC(O)CNC(C)(C)C)cccc2[nH]1 (stereo not drawn) [Compound 8, 1-(tert-butylamino)-3-[(2-methyl-1H-indol-4-yl)oxy]-2-propanol, reference compound]		strong ADRB2 antagonist activity
COCCCNCC(O)COc1cccc2[nH]c(C)cc12 (stereo not drawn) [Compound 33, 1-[(3-Methoxypropyl)amino]-3-[(2-methyl-1H-indol-4-yl)oxy]-2-propanol]		strong ADRB2 antagonist activity
